The target of one experiment is T1, BuSGBP-B (Bacteroides uniformis, UniProt A0ABC9NE57).
T1 construct: gene BACUNI_01487; signal peptide and lipidation Cys excluded; N-terminal His6 or His6-GST tag (pMCSG53 or pMCSG-GST); E. coli BL21(DE3)
T1 sequence (A0ABC9NE57 22-457): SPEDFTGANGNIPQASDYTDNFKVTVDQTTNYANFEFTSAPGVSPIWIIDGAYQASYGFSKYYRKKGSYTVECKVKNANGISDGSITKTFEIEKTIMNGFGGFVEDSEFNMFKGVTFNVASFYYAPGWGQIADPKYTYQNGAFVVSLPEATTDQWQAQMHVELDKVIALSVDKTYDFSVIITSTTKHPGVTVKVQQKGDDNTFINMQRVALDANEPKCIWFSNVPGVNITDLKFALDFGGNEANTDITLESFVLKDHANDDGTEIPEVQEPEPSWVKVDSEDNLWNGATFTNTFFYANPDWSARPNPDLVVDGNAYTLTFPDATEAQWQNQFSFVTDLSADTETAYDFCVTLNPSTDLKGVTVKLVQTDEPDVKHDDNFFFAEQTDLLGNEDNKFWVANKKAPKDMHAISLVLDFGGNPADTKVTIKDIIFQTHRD
As to the kind of experiment: isothermal titration calorimetry. The conditions noted are these: 25 °C; single-site model. The format is binding. (Isothermal titration calorimetry measures the heat released or taken up as one component is titrated into another.)

The target of experiment [1] is T2, BuGH3 (Bacteroides uniformis, UniProt A0ABC9NEJ2).
T2 construct: gene BACUNI_01484; signal peptide and lipidation Cys excluded; N-terminal His6 tag (pET28a); E. coli BL21(DE3)
T2 sequence (A0ABC9NEJ2 20-750): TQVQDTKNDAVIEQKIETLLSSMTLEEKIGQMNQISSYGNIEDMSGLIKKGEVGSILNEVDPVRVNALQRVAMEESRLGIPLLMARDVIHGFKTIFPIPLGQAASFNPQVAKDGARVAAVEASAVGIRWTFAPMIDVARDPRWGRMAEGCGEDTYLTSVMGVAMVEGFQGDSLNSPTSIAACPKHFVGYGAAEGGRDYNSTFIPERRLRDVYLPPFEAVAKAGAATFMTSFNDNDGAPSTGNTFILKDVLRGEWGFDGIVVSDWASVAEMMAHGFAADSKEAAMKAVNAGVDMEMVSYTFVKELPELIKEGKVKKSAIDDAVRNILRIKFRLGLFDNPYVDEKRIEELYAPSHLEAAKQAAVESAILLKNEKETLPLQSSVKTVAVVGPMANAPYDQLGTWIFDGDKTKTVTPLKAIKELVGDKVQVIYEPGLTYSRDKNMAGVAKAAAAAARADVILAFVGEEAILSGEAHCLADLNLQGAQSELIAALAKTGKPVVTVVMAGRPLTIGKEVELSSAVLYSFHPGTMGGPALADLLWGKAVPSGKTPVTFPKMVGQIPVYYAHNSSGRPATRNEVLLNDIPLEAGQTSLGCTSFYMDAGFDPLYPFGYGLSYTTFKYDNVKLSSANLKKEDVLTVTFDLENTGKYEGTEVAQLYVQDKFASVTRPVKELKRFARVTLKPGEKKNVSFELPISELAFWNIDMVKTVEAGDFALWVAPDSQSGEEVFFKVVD
As to the kind of experiment: continuous glucose release assay (hexokinase kit). The format is biochemical. As to conditions: oligosaccharide hydrolysis, exo-acting.

The target of another experiment is T3, BuGH158 (Bacteroides uniformis, UniProt A0ABC9NDZ5).
T3 construct: gene BACUNI_01485; signal peptide and lipidation Cys excluded; N-terminal His6 tag (pMCSG53); E. coli BL21(DE3)
T3 sequence (A0ABC9NDZ5 19-429 limits assumed): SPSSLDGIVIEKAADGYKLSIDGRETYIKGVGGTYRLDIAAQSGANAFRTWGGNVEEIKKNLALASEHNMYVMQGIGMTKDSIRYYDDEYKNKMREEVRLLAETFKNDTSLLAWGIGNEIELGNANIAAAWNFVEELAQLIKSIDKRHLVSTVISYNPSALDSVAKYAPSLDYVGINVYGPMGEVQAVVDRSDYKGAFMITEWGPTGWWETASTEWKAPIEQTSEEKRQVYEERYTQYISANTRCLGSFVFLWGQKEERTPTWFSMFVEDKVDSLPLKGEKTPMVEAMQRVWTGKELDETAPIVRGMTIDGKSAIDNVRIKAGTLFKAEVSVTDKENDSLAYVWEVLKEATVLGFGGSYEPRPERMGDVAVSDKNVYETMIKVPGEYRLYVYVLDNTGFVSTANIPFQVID
As to the kind of experiment: 1H-NMR of hydrolysis (anomer stereochemistry). It is filed as biochemical. As to conditions: 50 mM sodium phosphate pH 7.0 in D2O; 20 μM enzyme, 10 mM substrate; retaining.

For experiment [2], the target named is T2, BuGH3. The experiment can be described thus: continuous glucose release assay (hexokinase kit). It is filed as biochemical. The conditions noted are these: oligosaccharide hydrolysis, exo-acting. The source holds these as a separate data set.

As for `OC[C@H]1O[C@@H](O[C@@H]2[C@@H](O)[C@H](O[C@@H]3[C@@H](O)[C@H](O[C@@H]4[C@@H](O)[C@H](O[C@H]5[C@H](O)[C@@H](CO)OC(O)[C@@H]5O)O[C@H](CO)[C@H]4O)O[C@H](CO)[C@H]3O)O[C@H](CO)[C@H]2O)[C@H](O)[C@@H](O)[C@@H]1O` (stereo partly shown) [G3G3G3G3G, laminaripentaose], the Ka entry at BuSGBP-B is “affinity increased with degree of polymerization”. Besides, the Km entry on BuGH3 [1] was “after which Km values leveled off”.
For the compound `OC[C@H]1O[C@@H](O[C@@H]2[C@@H](O)[C@H](O[C@@H]3[C@@H](O)[C@H](O[C@H]4[C@H](O)[C@@H](CO)OC(O)[C@@H]4O)O[C@H](CO)[C@H]3O)O[C@H](CO)[C@H]2O)[C@H](O)[C@@H](O)[C@@H]1O` (stereo partly shown) [G3G3G3G, laminaritetraose], the Ka entry on BuSGBP-B was “affinity increased with degree of polymerization”. Besides, the Km entry at BuGH3 [1] is “after which Km values leveled off”.
`OC[C@H]1O[C@@H](O[C@@H]2[C@@H](O)[C@H](O[C@H]3[C@H](O)[C@@H](CO)OC(O)[C@@H]3O)O[C@H](CO)[C@H]2O)[C@H](O)[C@@H](O)[C@@H]1O` (stereo partly shown) [G3G3G, laminaritriose]: on BuSGBP-B, the Ka entry is recorded as “The smallest laminari-oligosaccharide bound by BuSGBP-B was the trisaccharide (G3G3G)”. Moreover, the Km result at BuGH3 [1] is “Km values decreased between the di- and trisaccharide”.
Consider `OC[C@H]1O[C@@H](O[C@H]2[C@H](O)[C@@H](CO)OC(O)[C@@H]2O)[C@H](O)[C@@H](O)[C@@H]1O` (stereo partly shown) [G3G, laminaribiose], for which, at BuGH3 [1], the Km result was “Km values decreased between the di- and trisaccharide”.
For `O=[N+]([O-])c1ccc(O[C@@H]2O[C@H](CO)[C@@H](O)[C@H](O[C@@H]3O[C@H](CO)[C@@H](O)[C@H](O)[C@H]3O)[C@H]2O)c(Cl)c1` [G3G-CNP, 2-chloro-4-nitrophenyl laminaribioside], at BuGH158, the “1H-NMR of hydrolysis (anomer stereochemistry)” value is given as “NMR analysis of the hydrolysis of 2-chloro-4-nitrophenyl laminaribioside (G3G-CNP)”.
`OC[C@H]1O[C@@H](O[C@H]2[C@H](O)[C@@H](O)C(O)O[C@@H]2CO)[C@H](O)[C@@H](O)[C@@H]1O` (stereo partly shown) [G4G, cellobiose]: at BuGH3 [2], the kcat/Km result was “kcat/Km value for laminaribiose (G3G) over cellobiose (G4G) and gentiobiose (G6G)”.
On the same count and under the same terms, as for `OC[C@H]1O[C@@H](OC[C@H]2OC(O)[C@H](O)[C@@H](O)[C@@H]2O)[C@H](O)[C@@H](O)[C@@H]1O` (stereo partly shown) [G6G, gentiobiose], the entry is “kcat/Km value for laminaribiose (G3G) over cellobiose (G4G) and gentiobiose (G6G)”.

(Values after paper PMC7157763, “Synergy between Cell Surface Glycosidases and Glycan-Binding Proteins Dictates the Utilization of Specific Beta(1,3)-Glucans by Human Gut Bacteroides” (mBio, 2020).)
